Laboratory results from patent US9504672B2, “Compositions and methods for treating or preventing pneumovirus infection and associated diseases” (MicroDose Therapeutx, Inc., priority 2012, dated 2016).
Like-named read-outs stand apart in the source and are kept apart here.

How the values were obtained:
[1] = Critical water activity by DVS sorption/desorption isotherms; format: physicochemical
Excerpt: The characteristic gravimetric loss of water is between 1-4.5% w/w.
The characteristic gravimetric loss of water for P-3 dihydrate is between 5.5-8.5% w/w. The profound difference of the DVS curves between the P-2 and P-3 forms can be utilized as a secondary technique for quantitative phase analysis of these forms.

[2] = physchem; details: 37 °C, water, thermodynamic from solid
[3] = Protocol: The data are shown for: (a) non-hydrogenated DPPC (Sigma-Aldrich, USA) and (b) hydrogenated DPPC (Lipoid LLC, USA) surfactants at 0.02% w/v concentration. Each data point represents a triplicate sample obtained at temperature 37° C.
Time-dependent solubility study was carried out in simulated lung fluid (SLF) containing the surfactant dipalmitoylphosphatidylcholine (DPPC). The DPPC is a major surfactant present in the human lung.
Simulated lung fluid was prepared according to a method described by Moss et al. (Health Physics 1979, v36, 447-448).
A 0.1% DPPC in water solution was prepared according to a procedure published by Marques et al. (Dissolution Technologies, August 2011). The SLF solution modified with 0.02% DPPC was prepared by diluting the 0.1% DPPC solution with SLF. Refer to NB1181P59-60 for the details on the preparation procedure of SLF and SLF modified with 0.02% DPPC. Two types of DPPC were used in the study. The hydrogenated DPPC was supplied by Lipoid LLC (USA), while the non-hydrogenated DPPC was supplied by Sigma-Aldrich (catalogue # P0763-1G). […] In order to segregate the solid drug substance from the cloudy solution, a dialysis tube (Sigma-Aldrich catalogue # D9277-100FT) was used. A saturated solution of the drug substance in SLF modified with 0.02% DPPC was prepared and carefully transferred into the dialysis tube (˜10 mL in volume). […]

[4] = Bulk powder density and flow indices (volumetric); format: physicochemical
[5] = 40° C./75% RH, 4 weeks
[6] = for Total Imp/Deg: listed as P224-135-2; for number of impurity peaks: listed as P-2
Protocol: Forced degradation experiments consisted of placing solid samples of P-2 hydrate and P-3 dihydrate materials in sealed glass bottles at 120° C. for 7 days.

[7] = Slurry of equal mixture of six phases in 75/25 acetone-water (PXRD); format: physicochemical; details: 25° C., 12 days
Protocol: An equal powder mixture of six known phases (P-2, P-3, P-4, P-6, P-7 and P-8), 50 mg each were stirred in 75/25 acetone-water solvent (50 mL) at 25° C. over 12 days.

[8] = physchem
Protocol: Equilibrium solubility of different API forms in aqueous ethanol: This solubility was determined for P-2 and P-3 crystal forms using slurry equilibration and solution concentration measurement with HPLC.

[9] = Specific surface area (BET); format: physicochemical
[10] = Particle size of micronized material (Sympatec HELOS & RODOS); format: physicochemical
[11] = physchem; details: 25 °C, organic solvent or mixture, thermodynamic from solid
[12] = Thermodynamic relationship (hierarchy) of P-2 and P-3 crystal forms; format: physicochemical; details: ambient conditions (15-37° C., 40-100% RH)
Excerpt: FIG. 17 illustrates the thermodynamic relationship (hierarchy) of the P-2 and P-3 families of crystal forms.

[13] = remark: listed apart in the source
Excerpt: Four lots of MDT-637 API were micronized using a 2-inch spiral jet mill.

[14] = Competitive slurry stability study between P-2 and P-3 (PXRD quantitative phase analysis); format: physicochemical; details: 50/50 acetonitrile/water, 25° C.

Cc1nnnn1/N=C/c1ccc(O)c(C(c2ccc(O)cc2)c2cc(/C=N/n3nnnc3C)ccc2O)c1 [P-2 hydrate, phenol, 2,2′-[(4-hydroxyphenyl)methylene]bis[4-[[(5-methyl-1H-tetrazol-1-yl)imino]methyl]]]
critical water activity for transition between P-2 hydrate and anhydrous forms ([1]; 1% RH equilibration steps): 30-40 % RH | Characteristic relative humidity of dehydration (20° C.) ([1]; 20° C.): 30-40% | solubility [2]: < 6 nM | factor by which solubility is lower than that of P-3 dihydrate [3]: 5 to 6 | Carr index [4]: 16.7% | Hausner ratio [4]: 1.20 | Poured bulk powder density [4]: 0.16 g/mL | Tapped bulk powder density [4]: 0.19 g/mL | Assay ([5]; open dish, listed as P-2): 98.8% | Rel Subs ([5]; open dish, listed as P-2): 0.68% | Water ([5]; open dish, listed as P-2): 3.5% | change of form / solid-state stability (DSC and PXRD) ([5]; open wide glass bottles): no change of form | chemical stability ([5]; open wide glass bottles): Acceptable chemical stability | Grand Total ([6]; 120C/7D): 99.8 Area % | Total Imp/Deg ([6]; 120C/7D): 0.76 Area % | Impurity/Degradation Product A ([6]; 7 days): 0.07 Area % | Impurity/Degradation Product H ([6]; 7 days): 0.40 Area % | Impurity/Degradation Product I ([6]; 7 days): 0.07 Area % | Impurity/Degradation Product K ([6]; 7 days): 0.16 Area % | Impurity/Degradation Product P ([6]; 7 days): 0.06 Area % | Grand Total ([6]; CTRL): 99.9 Area % | Total Imp/Deg ([6]; CTRL): 0.67 Area % | number of impurity peaks ([6]; control): 4 peaks | number of impurity peaks ([6]; stressed sample, 120° C. for 7 days): 5 peaks | form conversion / stability in six-phase slurry [7]: most thermodynamically stable form | equilibrium solubility [8]: 416.5 µg/mL | Specific surface area [9]: 22.6 m^2/g | Characteristic medium volume particle size (micronized) [10]: 1.1 μm | solubility [11]: 190 µg/mL | thermodynamic stability [12]: most stable crystal form | effect of micronization on crystallinity, phase purity, chemical degradation [13]: did not affect the crystallinity, phase purity | composition of slurry for P-2 hydrate ([14]; 4 days (50% at day 0)): 77% | composition of slurry for P-2 hydrate ([14]; 10 days (50% at day 0)): 85%
